In patent US12371460B2, “Glycan-binding proteins and related compositions and methods” (priority 2019, dated 2025):

Molecular target: Sulfolobus solfataricus Sso7d (rcSso7d, SEQ ID NO: 1) variant clone E, SEQ ID NO: 398 (Saccharolobus solfataricus, UniProt P61991, A45G/K22H/K28Q/K40A/K7T/K9Q/M29W/R43W/S31W/T33I/T41K/V26W/W24R)
Experiment: biolayer interferometry, clone E immobilized on Ni-NTA tip
Format: binding
Conditions: 1 uM solution of the sugar; FIG. 2E
Text: The traces show an increase in nm as sugar starts binding to protein on the tip, then a decrease in nm as the tip is moved from the sugar solution to buffer only.

Sulfolobus solfataricus Sso7d (rcSso7d, SEQ ID NO: 1) variant clone E, SEQ ID NO: 398, sequence (P61991 other isoform, or with tags, fused parts or gaps with the stated changes): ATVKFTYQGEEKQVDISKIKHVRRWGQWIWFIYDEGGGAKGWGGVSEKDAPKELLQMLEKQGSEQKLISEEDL

## CC(=O)N[C@@H]1[C@@H](O[C@@H]2O[C@H](CO)[C@H](O)[C@H](O)[C@H]2O)[C@@H](O)[C@@H](CO)O[C@@H]1O [TF antigen, Galβ1-3GalNAcα]
  binding (biolayer interferometry traces): bound
